Results as given in patent US20220033397A1, “PHARMACEUTICAL COMPOUNDS AND THEIR USE AS INHIBITORS OF UBIQUITIN SPECIFIC PROTEASE 19 (USP19)” (ALMAC DISCOVERY LIMITED, priority 2018, published 2022).

molecular target: T1, Full-length USP19 (Homo sapiens, UniProt O94966); assay: USP19 fluorescence polarisation (FP) homogeneous assay with Ubiquitin-Lys-TAMRA substrate; format: biochemical; settings: 2.5 nM USP19, 30 min pre-incubation, average of at least two duplicate experiments
T1 construct: Full-length USP19 was purchased from Boston Biochem (E-576); purchased Boston Biochem E-576
T1 sequence (O94966 1-1318): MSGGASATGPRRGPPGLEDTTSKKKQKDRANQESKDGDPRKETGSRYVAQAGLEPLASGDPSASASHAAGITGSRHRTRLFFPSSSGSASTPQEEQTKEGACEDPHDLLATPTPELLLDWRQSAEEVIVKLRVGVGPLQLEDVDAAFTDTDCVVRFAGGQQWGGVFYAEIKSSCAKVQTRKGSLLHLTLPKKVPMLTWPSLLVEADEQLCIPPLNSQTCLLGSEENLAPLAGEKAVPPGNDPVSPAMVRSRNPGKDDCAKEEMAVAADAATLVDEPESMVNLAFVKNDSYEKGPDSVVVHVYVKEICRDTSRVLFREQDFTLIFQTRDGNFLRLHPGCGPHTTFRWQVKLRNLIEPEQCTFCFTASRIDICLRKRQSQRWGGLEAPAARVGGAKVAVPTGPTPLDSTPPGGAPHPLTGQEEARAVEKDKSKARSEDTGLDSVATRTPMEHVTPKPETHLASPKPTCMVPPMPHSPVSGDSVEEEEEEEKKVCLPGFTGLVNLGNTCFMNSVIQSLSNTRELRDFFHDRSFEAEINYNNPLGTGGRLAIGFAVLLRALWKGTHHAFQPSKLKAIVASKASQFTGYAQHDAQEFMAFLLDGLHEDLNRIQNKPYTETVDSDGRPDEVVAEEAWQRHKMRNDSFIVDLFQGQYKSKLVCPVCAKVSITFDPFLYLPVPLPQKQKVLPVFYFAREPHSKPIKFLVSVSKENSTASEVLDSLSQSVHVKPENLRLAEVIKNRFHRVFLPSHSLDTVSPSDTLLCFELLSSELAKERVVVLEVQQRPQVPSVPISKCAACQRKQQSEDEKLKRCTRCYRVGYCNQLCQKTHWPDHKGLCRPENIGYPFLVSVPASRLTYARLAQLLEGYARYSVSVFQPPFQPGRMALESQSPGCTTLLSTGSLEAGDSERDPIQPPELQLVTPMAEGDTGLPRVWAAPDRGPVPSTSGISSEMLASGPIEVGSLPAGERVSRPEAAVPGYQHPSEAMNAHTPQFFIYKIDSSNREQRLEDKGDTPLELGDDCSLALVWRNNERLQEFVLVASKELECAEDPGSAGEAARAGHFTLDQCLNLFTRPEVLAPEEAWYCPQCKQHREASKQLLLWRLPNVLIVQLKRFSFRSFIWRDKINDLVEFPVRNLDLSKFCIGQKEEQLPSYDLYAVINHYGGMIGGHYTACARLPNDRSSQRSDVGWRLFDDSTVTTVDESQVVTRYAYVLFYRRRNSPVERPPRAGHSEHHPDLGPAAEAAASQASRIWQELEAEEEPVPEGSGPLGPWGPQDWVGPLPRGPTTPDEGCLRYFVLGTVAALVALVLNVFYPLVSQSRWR
How it was run: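 Full-length USP19 preincubated 30 min at RT with inhibitor (200 μM to 2 μM series, 8–18 points) before adding 500 nM Ubiquitin-Lys-TAMRA substrate.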

SMILES | IC50 [µM]
O=C(NCc1noc(C2CC2)n1)N1CC[C@@](O)(Cn2cnc(-c3ccccc3)cc2=O)C2(CCCC2)C1 [Example 218, (S)—N-((5-Cyclopropyl-1,2,4-oxadiazol-3-yl)methyl)-10-hydroxy-10-((6-oxo-4-phenylpyrimidin-1(6H)-yl)methyl)-7-azaspiro[4.5]decane-7-carboxamide] | 5 to 50
O=C(N1CCC(O)(Cn2cnc(-c3ccccc3)cc2=O)C2(CCCC2)C1)N1CCOCC1CC1CC1 (stereo not drawn) [Example 229, 3-((7-(3-(Cyclopropylmethyl)morpholine-4-carbonyl)-10-hydroxy-7-azaspiro[4.5]decan-10-yl)methyl)-6-phenylpyrimidin-4(3H)-one] | 5 to 50
O=C(N1CCC(O)(Cn2cnc(-c3ccccc3)cc2=O)C2(CCCC2)C1)N1CCOCC1C1CCC1 (stereo not drawn) [Example 230, 3-((7-(3-Cyclobutylmorpholine-4-carbonyl)-10-hydroxy-7-azaspiro[4.5]decan-10-yl)methyl)-6-phenylpyrimidin-4(3H)-one] | 50 to 250
COCC1COCCN1C(=O)N1CCC(O)(Cn2cnc(-c3ccccc3)cc2=O)C2(CCCC2)C1 (stereo not drawn) [Example 231, 3-((10-Hydroxy-7-(3-(methoxymethyl)morpholine-4-carbonyl)-7-azaspiro[4.5]decan-10-yl)methyl)-6-phenylpyrimidin-4(3H)-one] | 5 to 50
CC1CCCN1C(=O)N1CCC(O)(Cn2cnc(-c3ccccc3)cc2=O)C2(CCCC2)C1 (stereo not drawn) [Example 233, 3-((10-Hydroxy-7-(2-methylpyrrolidine-1-carbonyl)-7-azaspiro[4.5]decan-10-yl)methyl)-6-phenylpyrimidin-4(3H)-one] | 5 to 50
CN(C(=O)N1CCC(O)(Cn2cnc(-c3ccccc3)cc2=O)C2(CCCC2)C1)C1CCC1 (stereo not drawn) [Example 234, N-Cyclobutyl-10-hydroxy-N-methyl-10-((6-oxo-4-phenylpyrimidin-1(6H)-yl)methyl)-7-azaspiro[4.5]decane-7-carboxamide] | 5 to 50
O=C(N1CCC(O)(Cn2cnc(-c3ccccc3)cc2=O)C2(CCCC2)C1)N1CCC12CCOC2 (stereo not drawn) [Example 236, 3-((10-Hydroxy-7-(6-oxa-1-azaspiro[3.4]octane-1-carbonyl)-7-azaspiro[4.5]decan-10-yl)methyl)-6-phenylpyrimidin-4(3H)-one] | 5 to 50
O=C(N1CCC(C2CC2)C1)N1CCC(O)(Cn2cnc(-c3ccccc3)cc2=O)C2(CCCC2)C1 (stereo not drawn) [Example 237, 3-((7-(3-Cyclopropylpyrrolidine-1-carbonyl)-10-hydroxy-7-azaspiro[4.5]decan-10-yl)methyl)-6-phenylpyrimidin-4(3H)-one] | 5 to 50
CN(Cc1ccns1)C(=O)N1CCC(O)(Cn2cnc(-c3ccccc3)cc2=O)C2(CCCC2)C1 (stereo not drawn) [Example 238, 10-Hydroxy-N-(isothiazol-5-ylmethyl)-N-methyl-10-((6-oxo-4-phenylpyrimidin-1(6H)-yl)methyl)-7-azaspiro[4.5]decane-7-carboxamide] | 5 to 50
CN(CC1CC(F)C1)C(=O)N1CCC(O)(Cn2cnc(-c3ccccc3)cc2=O)C2(CCCC2)C1 (stereo not drawn) [Example 239, N-((3-Fluorocyclobutyl)methyl)-10-hydroxy-N-methyl-10-((6-oxo-4-phenylpyrimidin-1(6H)-yl)methyl)-7-azaspiro[4.5]decane-7-carboxamide] | 5 to 50
CC1(C)CCCN1C(=O)N1CCC(O)(Cn2cnc(-c3ccccc3)cc2=O)C2(CCCC2)C1 (stereo not drawn) [Example 240, 3-((7-(2,2-Dimethylpyrrolidine-1-carbonyl)-10-hydroxy-7-azaspiro[4.5]decan-10-yl)methyl)-6-phenylpyrimidin-4(3H)-one] | 5 to 50

Next, values leading:

IC50 [µM] | SMILES
5 to 50 | O=C(NCc1ccc2c(c1)OCO2)N1CC[C@@](O)(Cn2cnc(-c3ccccc3)cc2=O)C2(CCCC2)C1 [Example 217, (S)—N-(Benzo[d][1,3]dioxol-5-ylmethyl)-10-hydroxy-10-((6-oxo-4-phenylpyrimidin-1(6H)-yl)methyl)-7-azaspiro[4.5]decane-7-carboxamide]
< 0.5 | O=C(NCc1ccco1)N1CC[C@@](O)(Cn2cnc(-c3ccccc3)cc2=O)C2(CCCC2)C1 [Example 219, (S)—N-(Furan-2-ylmethyl)-10-hydroxy-10-((6-oxo-4-phenylpyrimidin-1(6H)-yl)methyl)-7-azaspiro[4.5]decane-7-carboxamide]
< 0.5 | O=C(N1CC[C@@](O)(Cn2cnc(Cl)cc2=O)C2(CCCC2)C1)N1CCOC[C@H]1c1ccccc1 [Example 220, 6-Chloro-3-(((S)-10-hydroxy-7-((R)-3-phenylmorpholine-4-carbonyl)-7-azaspiro[4.5]decan-10-yl)methyl)pyrimidin-4(3H)-one]
0.5 to 5 | O=C(N1CC(C(F)(F)F)C1)N1CC[C@@](O)(Cn2cnc(-c3ccccc3)cc2=O)C2(CCCC2)C1 [Example 221, (S)-3-((10-Hydroxy-7-(3-(trifluoromethyl)azetidine-1-carbonyl)-7-azaspiro[4.5]decan-10-yl)methyl)-6-phenylpyrimidin-4(3H)-one]
< 0.5 | O=C(N1CC[C@@](O)(Cn2cnc(C3CC3)cc2=O)C2(CCCC2)C1)N1CCOC[C@H]1c1ccccc1 [Example 222, 6-Cyclopropyl-3-(((S)-10-hydroxy-7-((R)-3-phenylmorpholine-4-carbonyl)-7-azaspiro[4.5]decan-10-yl)methyl)pyrimidin-4(3H)-one]
< 0.5 | O=C(N1CC[C@@](O)(Cn2cnc(N3CCCC3)cc2=O)C2(CCCC2)C1)N1CCOC[C@H]1c1ccccc1 [Example 223, 3-(((S)-10-Hydroxy-7-((R)-3-phenylmorpholine-4-carbonyl)-7-azaspiro[4.5]decan-10-yl)methyl)-6-(pyrrolidin-1-yl)pyrimidin-4(3H)-one]
< 0.5 | Cn1nccc1-c1cc(=O)n(C[C@]2(O)CCN(C(=O)N3CCOC[C@H]3c3ccccc3)CC23CCCC3)cn1 [Example 224, 3-(((S)-10-Hydroxy-7-((R)-3-phenylmorpholine-4-carbonyl)-7-azaspiro[4.5]decan-10-yl)methyl)-6-(1-methyl-1H-pyrazol-5-yl)pyrimidin-4(3H)-one]
< 0.5 | Cn1cc(-c2cc(=O)n(C[C@]3(O)CCN(C(=O)N4CCOC[C@H]4c4ccccc4)CC34CCCC4)cn2)cn1 [Example 225, 3-(((S)-10-Hydroxy-7-((R)-3-phenylmorpholine-4-carbonyl)-7-azaspiro[4.5]decan-10-yl)methyl)-6-(1-methyl-1H-pyrazol-4-yl)pyrimidin-4(3H)-one]
< 0.5 | CN(C)c1cc(=O)n(C[C@]2(O)CCN(C(=O)N3CCOC[C@H]3c3ccccc3)CC23CCCC3)cn1 [Example 226, 6-(Dimethylamino)-3-(((S)-10-hydroxy-7-((R)-3-phenylmorpholine-4-carbonyl)-7-azaspiro[4.5]decan-10-yl)methyl)pyrimidin-4(3H)-one]
0.5 to 5 | O=C(N1CCC(C(F)(F)F)C1)N1CC[C@@](O)(Cn2cnc(-c3ccccc3)cc2=O)C2(CCCC2)C1 (stereo partly drawn) [Example 227, 3-(((10S)-10-Hydroxy-7-(3-(trifluoromethyl)pyrrolidine-1-carbonyl)-7-azaspiro[4.5]decan-10-yl)methyl)-6-phenylpyrimidin-4(3H)-one]
< 0.5 | O=C(N1CC[C@@](O)(Cn2cnc(-c3ccccc3)cc2=O)C2(CCCC2)C1)N1CCOC[C@H]1c1ccc(F)cc1 [Example 228, 3-(((S)-7-((R)-3-(4-Fluorophenyl)morpholine-4-carbonyl)-10-hydroxy-7-azaspiro[4.5]decan-10-yl)methyl)-6-phenylpyrimidin-4(3H)-one]
0.5 to 5 | CN(Cc1ccoc1)C(=O)N1CCC(O)(Cn2cnc(-c3ccccc3)cc2=O)C2(CCCC2)C1 (stereo not drawn) [Example 232, N-(Furan-3-ylmethyl)-10-hydroxy-N-methyl-10-((6-oxo-4-phenylpyrimidin-1(6H)-yl)methyl)-7-azaspiro[4.5]decane-7-carboxamide]
< 0.5 | O=C(N1CCC(O)(Cn2cnc(-c3ccccc3)cc2=O)C2(CCCC2)C1)N1CCOCC1c1cccs1 (stereo not drawn) [Example 235, 3-((10-Hydroxy-7-(3-(thiophen-2-yl)morpholine-4-carbonyl)-7-azaspiro[4.5]decan-10-yl)methyl)-6-phenylpyrimidin-4(3H)-one]
